Experimental data from US8173131B2, “Compositions and methods for modulating RSV infection and immunity” (PerkinElmer Health Sciences, Inc., priority 2000, dated 2012).

B1: G glycoprotein: purified G glycoprotein isolated from RSV/A2-infected Vero cells (protein)
chain: MSKNKDQRTAKTLERTWDTLNHLLFISSCLYKLNLKSVAQITLSILAMIISTSLIIAAIIFIASANHKVTPTTAIIQDATSQIKNTTPTYLTQNPQLGISPSNPSEITSQITTILASTTPGVKSTLQSTTVKTKNTTTTQTQPSKPTTKQRQNKPPSKPNNDFHFEVFNFVPCSICSNNPTCWAICKRIPNKKPGKKTTTKPTKKPTLKTTKKDPKPQTTKSKEVPTTKPTEEPTINTTKTNIITTLLTSNTTGNPELTSQMETFHSTSSEGNPSPSQVSTTSEYPSQPSSPPNTPRQ

System: cell trafficking to the lung (BAL cells)
Assay: In vivo cell trafficking to the lung of naïve mice after intranasal treatment
Design: species or system BALB/c mice
Settings: for Percentage of cells from BAL determined by flow cytometry: B220 / Percentage of cells from BAL determined by flow cytometry: CD4 / Percentage of cells from BAL determined by flow cytometry: CD8 / Percentage of cells from BAL determined by flow cytometry: CD11b / Percentage of cells from BAL determined by flow cytometry: DX5 / Percentage of cells from BAL determined by flow cytometry: RB6-8C5 / Percentage of cells from BAL determined by H&E stain: Eosinophil / Percentage of cells from BAL determined by H&E stain: Lymphocyte / Percentage of cells from BAL determined by H&E stain: Macrophage / Percentage of cells from BAL determined by H&E stain: PMN: day 2 post-treatment; for Percentage of cells from BAL determined by flow cytometry: B220 / Percentage of cells from BAL determined by flow cytometry: CD4 / Percentage of cells from BAL determined by flow cytometry: CD8: lymphocyte gate; for Percentage of cells from BAL determined by flow cytometry: CD11b / Percentage of cells from BAL determined by flow cytometry: DX5 / Percentage of cells from BAL determined by flow cytometry: RB6-8C5: ungated events; for Percentage of cells from BAL determined by H&E stain: Eosinophil / Percentage of cells from BAL determined by H&E stain: Lymphocyte / Percentage of cells from BAL determined by H&E stain: Macrophage / Percentage of cells from BAL determined by H&E stain: PMN / mean BAL cell numbers (±SEM) recovered: naïve BALB/c mice; for Percentage of cells from BAL determined by H&E stain: Eosinophil / Percentage of cells from BAL determined by H&E stain: Lymphocyte / Percentage of cells from BAL determined by H&E stain: Macrophage / Percentage of cells from BAL determined by H&E stain: PMN: i.n. 1 μM, median ± SE; for mean BAL cell numbers (±SEM) recovered: intranasal 1 μM, 48 hours post-treatment
Description: FIG. 5A is a bar graph showing leukocyte chemotaxis toward G glycoprotein or fractalkine (Fkn) in the presence or absence of anti-CX3CR1 antibody or normal rabbit sera. The chemotactic index determined from the fold increase of murine leukocyte migration toward the chemoattractant (e.g., Fkn or G glycoprotein) over the leukocyte migration toward the media alone control using modified Boyden chambers. Fkn, G glycoprotein, […] (10 μg) or normal rabbit sera (10 μg) was added to the upper chamber to examine antagonism of cell migration toward the chemoattractant in the lower chamber. FIG. 5B is a bar graph showing cell trafficking to the lung of naïve BALB/c mice intranasally treated with G glycoprotein, fractalkine or G glycoprotein peptides RT32, RT33 or RT34. BAL cells were fixed and stained with H&E. Cell subsets were determined as a percentage of the total BAL cells counted from >200 cells/slide counting two slides for each experiment. The percent cell type represents the median±SE from three separate experiments. * indicates significant difference compared to tissue culture media alone (p<0.05). Naïve BALB/c mice were i.n. treated with 1 μM G glycoprotein or fractalkine or with 1 μM G glycoprotein peptides. The BAL was collected 2 days post-treatment for analysis.
Cell trafficking to the lung in naïve and FI-RSV-immune BALB/c mice was examined following intranasal treatment with either 1 μM fractalkine, RSV G glycoprotein or RSV G peptides. All mice were females purchased from Harlan Sprague Dawley (Indianapolis, Ind.) and maintained at the Centers for Disease Control and Prevention in Atlanta, Ga. FI-RSV-immune mice were immunized in the superficial gluteal muscle using 10^6 pfu equivalents of FI-RSV in accordance with methods known to those skilled in the art. Mice were anesthetized with 2,2,2,-tribromoethanol and intranasally treated with 0.05 ml of either fractalkine, RSV G glycoprotein or peptide diluted in PBS (GIBCO). At day two post-treatment, the mice were anesthetized, exsanguinated by severing the right caudal artery, and the bronchoalveolar (BAL) cells collected in PBS containing 1% BSA (Sigma). BAL cells were blocked with 10% normal mouse sera (Jackson Laboratories, Bar Harbor, Me.) in PBS, and then stained with the appropriate combinations of FITC- or PE-labeled anti-CD3 (145-2C11), anti-CD4 (GK1.5), anti-CD8 (53-6.7), anti-CD11b (M1/70), anti-CD45R/B220 (RA3-6B2), anti-pan NK cell (DX5), anti-neutrophil (RB6-8C5), and mouse isotype Ab controls (all from PharMingen, San Diego, Calif.). The distribution of cell surface markers was determined in two-color mode on a FACScan with CellQUEST software (Becton-Dickinson, Mountain View, Calif.).

| Molecule | Percentage of cells from BAL determined by flow cytometry: B220 [%] | Percentage of cells from BAL determined by flow cytometry: CD4 [%] | Percentage of cells from BAL determined by flow cytometry: CD8 [%] | Percentage of cells from BAL determined by flow cytometry: CD11b [%] | Percentage of cells from BAL determined by flow cytometry: DX5 [%] | Percentage of cells from BAL determined by flow cytometry: RB6-8C5 [%] | Percentage of cells from BAL determined by H&E stain: Eosinophil [%] | Percentage of cells from BAL determined by H&E stain: Lymphocyte [%] | Percentage of cells from BAL determined by H&E stain: Macrophage [%] | Percentage of cells from BAL determined by H&E stain: PMN [%] | mean BAL cell numbers (±SEM) recovered |
| --- | --- | --- | --- | --- | --- | --- | --- | --- | --- | --- | --- |
| VPCSICSNNPTC [RT32] | 3 ± 2 | 2 ± 2 | 2 ± 2 | 3 ± 2 | 2 ± 1 | 2 ± 2 | 0 ± 0 | 12 ± 4 | 94 ± 5 | 2 ± 2 | 2.2 (±0.5) ×10^5 cells/ml |
| Fkn: CX3C chemokine fractalkine (R&D), ligand of CX3CR1 [reference compound] | 6 ± 2 | 16 ± 4 | 6 ± 2 | 12 ± 4 | 17 ± 8 | 10 ± 6 | 0 ± 0 | 10 ± 3 | 71 ± 10 | 16 ± 5 | 3.8 (±0.6) ×10^5 cells/ml |
| B1 | 5 ± 4 | 8 ± 2 | 4 ± 3 | 12 ± 5 | 9 ± 6 | 10 ± 4 | 0 ± 0 | 10 ± 3 | 68 ± 10 | 22 ± 4 | 4.6 (±1.1) ×10^5 cells/ml |
